Read-outs that look alike come from different tables or passages of the source.
Tested on: MOLM-13 cells
Test: Viability assay in MOLM-13 cells (CellTiter-Glo 2.0)
Assay type: cell-based, human
Details: read-out: MOLM-13 IC50 (cell viability)
[1] = MOLM-13 human AML cells, 72 hours, CellTiter-Glo 2.0

Protocol: Effects of test compounds on the proliferation and viability of human AML cells was evaluated using the MOLM-13 cell line (AddexBio Technologies cat. no. C0003003). […] Test compounds or controls (Bortezomib or DMSO) diluted in 2% DMSO/media were added to each well for final concentrations of 0.2% DMSO and 0.1-1 μM Bortezomib. The cells were incubated for 72 hours at 37° C. and 5% CO2. At the end of the 72 hour incubation, plates were removed from the incubator, cooled to room temperature and equal volume of CellTiter-Glo 2.0 (Promega) added to each well. After mixing and incubating the plate at room temperature for 10 minutes the luminescence was read using a plate reader. […] Concentration-response-curves and IC50 values were generated using Collaborative Drug Discovery software.

Row | SMILES | IC50 [1] [nM] | IC50 (Homo sapiens, MOLM-13, 72 h) [nM]
1 | O=c1c2cncc(N3CC4(CCCOC4)C3)c2ccn1Cc1cn2cc(CNCC3CC(F)C3)ccc2n1 (stereo not drawn) [Compound 145, 2-{[6-({[(3-fluorocyclobutyl)methyl]amino}methyl)imidazo[1,2-a]pyridin-2-yl]methyl}-5-{6-oxa-2-azaspiro[3.5]nonan-2-yl}-1,2-dihydro-2,7-naphthyridin-1-one] | 1000 to 10000 | 
2 | O=c1c2cncc(N3CC4(CCC(F)(F)CC4)C3)c2ccn1Cc1cn2cc(CNCC3CC(F)C3)ccc2n1 (stereo not drawn) [Compound 146, 5-{7,7-difluoro-2-azaspiro[3.5]nonan-2-yl}-2-{[6-({[(3-fluorocyclobutyl)methyl]amino}methyl)imidazo[1,2-a]pyridin-2-yl]methyl}-1,2-dihydro-2,7-naphthyridin-1-one] | 1000 to 10000 | 
3 | O=c1c2cncc(N3CCC4(C3)CC(F)(F)C4)c2ccn1Cc1cn2cc(CNCC3CC(F)C3)ccc2n1 (stereo not drawn) [Compound 147, 5-{2,2-difluoro-6-azaspiro[3.4]octan-6-yl}-2-{[6-({[(3-fluorocyclobutyl)methyl]amino}methyl)imidazo[1,2-a]pyridin-2-yl]methyl}-1,2-dihydro-2,7-naphthyridin-1-one] | 1000 to 10000 | 
4 | O=c1c2cncc(N3CC(N4CCC(F)CC4)C3)c2ccn1Cc1cn2cc(CNCC3CC(F)C3)ccc2n1 (stereo not drawn) [Compound 148, 2-{[6-({[(3-fluorocyclobutyl)methyl]amino}methyl)imidazo[1,2-a]pyridin-2-yl]methyl}-5-[3-(4-fluoropiperidin-1-yl)azetidin-1-yl]-1,2-dihydro-2,7-naphthyridin-1-one] | 1000 to 10000 | 
5 | O=c1c2cncc(N3CC(c4ccncc4)C3)c2ccn1Cc1cn2cc(CNCC3CC(F)C3)ccc2n1 (stereo not drawn) [Compound 149, 2-{[6-({[(3-fluorocyclobutyl)methyl]amino}methyl)imidazo[1,2-a]pyridin-2-yl]methyl}-5-[3-(pyridin-4-yl)azetidin-1-yl]-1,2-dihyro-2,7-naphthyridin-1-one] | 1000 to 10000 | 
6 | O=c1c2cncc(N3CC(c4ccc(F)cc4)C3)c2ccn1Cc1cn2cc(CNCC3CC(F)C3)ccc2n1 (stereo not drawn) [Compound 150, 2-{[6-({[(3-fluorocyclobutyl)methyl]amino}methyl)imidazo[1,2-a]pyridin-2-yl]methyl}-5-[3-(4-fluorophenyl)azetidin-1-yl]-1,2-dihydro-2,7-naphthyridin-1-one] | 1000 to 10000 | 
7 | O=c1c2cncc(N3CC4(CCOC4)C3)c2ccn1Cc1cn2cc(CNCC34CC(F)(C3)C4)ccc2n1 [Compound 151, 2-((6-((((3-fluorobicyclo[1.1.1]pentan-1-yl)methyl)amino)methyl)imidazo[1,2-a]pyridin-2-yl)methyl)-5-(6-oxa-2-azaspiro[3.4]octan-2-yl)-2,7-naphthyridin-1(2H)-one] |  | < 1000
8 | O=c1c2cncc(N3CC4(CCCOC4)C3)c2ccn1Cc1cn2cc(CNCC34CC(F)(C3)C4)ccc2n1 [Compound 153, 2-[(6-{[({3-fluorobicyclo[1.1.1]pentan-1-yl}methyl)amino]methyl}imidazo[1,2-a]pyridin-2-yl)methyl]-5-{6-oxa-2-azaspiro[3.5]nonan-2-yl}-1,2-dihydro-2,7-naphthyridin-1-one] | < 1000 | 
9 | O=c1c2cncc(-c3ccccc3F)c2ccn1Cc1cn2cc(CNCC34CC(F)(C3)C4)ccc2n1 [Compound 154, 2-[(6-{[({3-fluorobicyclo[1.1.1]pentan-1-yl}methyl)amino]methyl}imidazo[1,2-a]pyridin-2-yl)methyl]-5-(2-fluorophenyl)-1,2-dihydro-2,7-naphthyridin-1-one] | 1000 to 10000 | 
10 | NC(=O)c1ccc(-c2cncc3c(=O)n(Cc4cn5cc(CNCC67CC(F)(C6)C7)ccc5n4)ccc23)cc1 [Compound 155, 4-{7-[(6-{[({3-fluorobicyclo[1.1.1]pentan-1-yl}methyl)amino]methyl}imidazo[1,2-a]pyridin-2-yl)methyl]-8-oxo-7,8-dihydro-2,7-naphthyridin-4-yl}benzamide] | 1000 to 10000 | 
11 | O=c1c2cncc(C3CCC3)c2ccn1Cc1cn2cc(CNCC3CC(F)C3)ccc2n1 (stereo not drawn) [Compound 156, 5-cyclobutyl-2-{[6-({[(3-fluorocyclobutyl)methyl]amino}methyl)imidazo[1,2-a]pyridin-2-yl]methyl}-1,2-dihydro-2,7-naphthyridin-1-one] | > 10000 | 
12 | O=c1c2cncc(N3CC4(COC4)C3)c2cnn1Cc1cn2cc(CNCC34CC(F)(C3)C4)ccc2n1 [Compound 157, 3-[(6-{[({3-fluorobicyclo[1.1.1]pentan-1-yl}methyl)amino]methyl}imidazo[1,2-a]pyridin-2-yl)methyl]-8-{2-oxa-6-azaspiro[3.3]heptan-6-yl}pyrido[3,4-d]pyridazin-4-one] | 1000 to 10000 | 

— US20250059207A1, “6,6-FUSED HETEROCYCLIC COMPOUNDS AS METTL3 INHIBITORS” (858 Therapeutics, Inc., priority 2021, published 2025)
